Data taken from patent US9522888B2, “Substituted bicyclic compounds” (BRISTOL-MYERS SQUIBB COMPANY, priority 2014, dated 2016).

Columns and labels:
human S1P1 = human S1P1 (Homo sapiens (Human), UniProt P21453); assay: S1P1 binding assay (33P-S1P radioligand competition, CHO cell membranes); details: phosphate examples; read-out: S1P1 Binding
Description: Membranes were prepared from CHO cells expressing human S1P1. Cells pellets (1×10^9 cells/pellet) were suspended in buffer containing 20 mM HEPES (4-(2-hydroxyethyl)-1-piperazineethanesulfonic acid), pH 7.5, 50 mM NaCl, 2 mM EDTA (Ethylenediaminetetraacetic acid) and Protease Inhibitor cocktail (Roche), and disrupted on ice using the Polytron homogenizer. The homogenate was centrifuged at 20,000 rpm (48,000 g) and the supernatant was discarded. The membrane pellets were resuspended in buffer containing 50 mM HEPES, pH 7.5, 100 mM NaCl, 1 mM MgCl2, 2 mM EDTA and stored in aliquots at −80° C. after protein concentration determination.

[1] = target: S1P1 (membranes prepared from S1P1/CHO cells) (Homo sapiens (Human), UniProt P21453); assay: Receptor [35S] GTPγS binding assay (S1P1 GTPγS); format: biochemical; details: phosphate examples; read-out: S1P1 GTPγS
Description: (§1) Receptor [^35S] GTPγS Binding Assays: (S1P1 GTPγS/S1P3 GTPγS)
Compounds were loaded in a 384 Falcon v-bottom plate (0.5 μl/well in a 11 point, 3-fold dilution). Membranes prepared from S1P1/CHO cells or EDG3-Gal5-bla HEK293T cells (EDG3 equivalent S1P3) were added to the compound plate (40 μl/well, final protein 3 μg/well) with MULTIDROP®. [^35S] GTP (1250 Ci/mmol, Perkin Elmer) was diluted in assay buffer: 20 mM HEPES, pH7.5, 10 mM MgCl2, 150 mM NaCl, 1 mM EGTA (ethylene glycol tetraacetic acid), 1 mM DTT (Dithiothreitol), 10 μM GDP, 0.1% fatty acid free BSA, and 10 μg/ml Saponin to 0.4 nM. 40 μl of the [^35S] GTP solution was added to the compound plate with a final concentration of 0.2 nM. The reaction was kept at room temperature for 45 min. At the end of incubation, all the mixtures in the compound plate were transferred to Millipore 384-well FB filter plates via the VELOCITY11® Vprep liquid handler. The filter plate was washed with water 4 times by using the manifold Embla plate washer and dried at 60° C. for 45 min. MicroScint 20 scintillation fluid (30 μl) was added to each well for counting on the Packard TOPCOUNT®. […]

hS1P1/CHO cells = hS1P1/CHO cells (Homo sapiens (Human), UniProt P21453); assay: hS1P1 ERK phosphorylation (S1P1 pERK); format: cell-based; details: phosphate examples
Description: hS1P1 ERK Phosphorylation (S1P1 pERK)
hS1P1/CHO cells were plated into BD Amine 384-well plates the day before the assay. On the day of the assay, growth medium was removed and replaced with serum-free medium (Ham's F-12 Invitrogen) and incubated for 2 hours. Test compounds pre-diluted in HBSS (Gibco)/20 mM HEPES (Gibco) were transferred to the cell plates and incubated for 7 minutes at 37° C. Cells were lysed in lysis buffer (Perkin Elmer) and phospho-ERK was measured using the SureFire pERK kit (Perkin Elmer) as described by the manufacturer. Data was plotted as percentage activation of the test compound relative to the efficacy of 10 μM S1P.

[2] = target: S1P3 (membranes prepared from EDG3-Gal5-bla HEK293T cells) (Homo sapiens (Human), UniProt Q99500); assay: Receptor [35S] GTPγS binding assay (S1P3 GTPγS); format: biochemical; details: phosphate examples; read-out: S1P3 GTPγS
Description: as §1
Compounds were loaded in a 384 Falcon v-bottom plate (0.5 μl/well in a 11 point, 3-fold dilution). Membranes prepared from S1P1/CHO cells or EDG3-Gal5-bla HEK293T cells (EDG3 equivalent S1P3) were added to the compound plate (40 μl/well, final protein 3 μg/well) with MULTIDROP®. [^35S] GTP (1250 Ci/mmol, Perkin Elmer) was diluted in assay buffer: 20 mM HEPES, pH7.5, 10 mM MgCl2, 150 mM NaCl, 1 mM EGTA (ethylene glycol tetraacetic acid), 1 mM DTT (Dithiothreitol), 10 μM GDP, 0.1% fatty acid free BSA, and 10 μg/ml Saponin to 0.4 nM. 40 μl of the [^35S] GTP solution was added to the compound plate with a final concentration of 0.2 nM. The reaction was kept at room temperature for 45 min. At the end of incubation, all the mixtures in the compound plate were transferred to Millipore 384-well FB filter plates via the VELOCITY11® Vprep liquid handler. The filter plate was washed with water 4 times by using the manifold Embla plate washer and dried at 60° C. for 45 min. MicroScint 20 scintillation fluid (30 μl) was added to each well for counting on the Packard TOPCOUNT®.
A smaller value for GTPγS S1P1 EC50 value indicated greater activity for the compound in the GTPγS S1P1 binding assay. A larger value for the GTPγS S1P3 EC50 value indicated less activity in the GTPγS S1P3 binding assay. […] Thus the compounds of the present invention may be used in treating, preventing, or curing various S1P1 receptor-related conditions while reducing or minimizing the side effects due to S1P3 activity. The selectivity of the compounds of the present invention indicate their potential use in treating, preventing, or curing autoimmune and inflammatory diseases such as multiple sclerosis, rheumatoid arthritis, inflammatory bowel disease, lupus, psoriasis, or vascular diseases, while reducing or minimizing possible side effects due to S1P3 activity. Other potential uses of the compounds of the present invention include minimizing or reducing rejection of transplanted organs, while reducing or minimizing side effects due to S1P3 activity.

Sequence of S1P3 (membranes prepared from EDG3-Gal5-bla HEK293T cells) (Q99500 whole entry): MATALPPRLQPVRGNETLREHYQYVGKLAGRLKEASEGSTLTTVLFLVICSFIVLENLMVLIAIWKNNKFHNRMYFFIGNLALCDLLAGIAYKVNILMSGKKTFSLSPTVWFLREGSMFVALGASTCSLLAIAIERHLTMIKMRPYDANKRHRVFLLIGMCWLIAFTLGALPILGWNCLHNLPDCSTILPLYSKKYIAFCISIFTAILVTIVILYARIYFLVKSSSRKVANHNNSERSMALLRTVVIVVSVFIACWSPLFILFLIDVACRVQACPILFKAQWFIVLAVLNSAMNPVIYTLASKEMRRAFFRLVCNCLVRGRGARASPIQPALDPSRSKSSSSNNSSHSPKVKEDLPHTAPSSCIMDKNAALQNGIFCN
Sequence of hS1P1/CHO cells (P21453 whole entry): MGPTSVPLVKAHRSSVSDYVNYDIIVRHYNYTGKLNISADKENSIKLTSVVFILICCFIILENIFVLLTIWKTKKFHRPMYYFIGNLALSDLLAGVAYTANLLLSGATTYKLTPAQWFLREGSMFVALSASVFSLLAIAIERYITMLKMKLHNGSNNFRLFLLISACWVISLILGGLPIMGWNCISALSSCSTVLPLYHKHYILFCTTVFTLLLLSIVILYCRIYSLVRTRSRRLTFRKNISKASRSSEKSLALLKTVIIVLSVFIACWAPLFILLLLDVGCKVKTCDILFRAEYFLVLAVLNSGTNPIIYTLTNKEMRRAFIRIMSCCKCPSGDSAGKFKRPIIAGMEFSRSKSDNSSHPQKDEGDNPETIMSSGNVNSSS
Sequence of S1P1 (membranes prepared from S1P1/CHO cells) (P21453 whole entry): as above
Sequence of human S1P1 (P21453 whole entry): as above

SMILES	IC50 (human S1P1) [nM]	EC50 [1] [nM]	EC50 (hS1P1/CHO cells) [nM]	EC50 [2] [nM]
CCCCOC[C@@H]1COc2cc([C@H]3CC[C@](N)(COP(=O)(O)O)C3)ccc2O1 [compound 414]	< 10	10 to 100	1000 to 10000	> 625
CCCCOC[C@@H]1COc2cc([C@@H]3CC[C@](N)(COP(=O)(O)O)C3)ccc2O1 [compound 415]	10 to 100	10 to 100	10 to 100	> 625
CCCCCCN1CCc2cc([C@@H]3CC[C@](N)(COP(=O)(O)O)C3)ccc2C1=O [compound 417]	10 to 100	100 to 1000	< 10	> 625
CCCCCCC1CCc2cc([C@@H]3CC[C@](N)(COP(=O)(O)O)C3)ccc2O1 (stereo partly drawn) [compound 420]	10 to 100	10 to 100	1000 to 10000	> 625
CCCCCCC1Cc2ccc([C@H]3CC[C@](N)(COP(=O)(O)O)C3)cc2CO1 (stereo partly drawn) [compound 421]	< 10	< 10	< 10	> 625
CCCCCC[C@@H]1COc2cc([C@@H]3CC[C@](N)(COP(=O)(O)O)C3)ccc2C1 [compound 423]	100 to 1000	100 to 1000	10 to 100	> 625
CCCCCC[C@H]1COc2cc([C@H]3CC[C@](N)(COP(=O)(O)O)C3)ccc2C1 [compound 424]	10 to 100	10 to 100	< 10	> 625
CCCCCC[C@H]1COc2cc([C@@H]3CC[C@](N)(COP(=O)(O)O)C3)ccc2C1 [compound 425]	< 10	< 10	< 10	> 625
CCCCCC[C@H]1Cc2ccc([C@H]3CC[C@](N)(COP(=O)(O)O)C3)cc2CO1 [compound 426]	10 to 100	< 10	< 10	> 625
CCCCCC[C@@H]1Cc2ccc([C@H]3CC[C@](N)(COP(=O)(O)O)C3)cc2CO1 [compound 427]	10 to 100	< 10	< 10	> 625
CCCCCCC[C@H]1Cc2ccc([C@H]3CC[C@](N)(COP(=O)(O)O)C3)cc2CO1 [compound 428]	< 10	< 10	10 to 100	> 625
CCCCCCCOC1CCc2cc([C@H]3CC[C@](N)(COP(=O)(O)O)C3)ccc2C1 (stereo partly drawn) [compound 432]	< 10	< 10	10 to 100	> 100
CCCC/C=C\CO[C@H]1CCc2cc([C@H]3CC[C@](N)(COP(=O)(O)O)C3)ccc2C1 [compound 440]	< 10	< 10	< 10	> 625

The remaining lines, values ahead:

IC50 (human S1P1) [nM]	EC50 [1] [nM]	EC50 (hS1P1/CHO cells) [nM]	EC50 [2] [nM]	SMILES
100 to 1000	100 to 1000	100 to 1000	> 625	N[C@]1(COP(=O)(O)O)CC[C@H](c2ccc3c(c2)CC[C@H](C[S+]([O-])c2ccccc2)C3)C1 (stereo partly drawn) [Example 667, ((1R,3S)-1-amino-3-((6S)-6-((phenylsulfinyl)methyl)-5,6,7,8-tetrahydronaphthalen-2-yl)cyclopentyl)methyl dihydrogen phosphate]
10 to 100	10 to 100	< 10	> 625	CCCCCO[C@@H]1CCc2cc([C@H]3CC[C@](N)(COP(=O)(O)O)C3)ccc2C1 [compound 430]
10 to 100	100 to 1000	< 10	> 625	CCCCCO[C@H]1CCc2cc([C@H]3CC[C@](N)(COP(=O)(O)O)C3)ccc2C1 [compound 431]
10 to 100	100 to 1000	< 10	> 625	CCCCCO[C@@H]1CCc2cc([C@@H]3CC[C@](N)(COP(=O)(O)O)C3)ccc2C1 [compound 433]
< 10	10 to 100	< 10	> 625	CCCCCO[C@H]1CCc2cc([C@@H]3CC[C@](N)(COP(=O)(O)O)C3)ccc2C1 [compound 434]
< 10	10 to 100	< 10	> 625	CCCCO[C@H]1CCc2cc([C@H]3CC[C@](N)(COP(=O)(O)O)C3)ccc2C1 [compound 436]
< 10	< 10	< 10	> 625	CCC/C=C\CO[C@H]1CCc2cc([C@H]3CC[C@](N)(COP(=O)(O)O)C3)ccc2C1 [compound 437]
< 10	10 to 100	< 10	> 625	CCC/C=C\CO[C@@H]1CCc2cc([C@H]3CC[C@](N)(COP(=O)(O)O)C3)ccc2C1 [compound 438]
< 10	< 10	< 10	> 625	COc1cccc(CO[C@H]2CCc3cc([C@H]4CC[C@](N)(COP(=O)(O)O)C4)ccc3C2)c1 [compound 442]
< 10	< 10	< 10	> 625	CCOc1cccc(CO[C@@H]2CCc3cc([C@H]4CC[C@](N)(COP(=O)(O)O)C4)ccc3C2)c1 [compound 444]
10 to 100	10 to 100	10 to 100	> 625	N[C@]1(COP(=O)(O)O)CC[C@H](c2ccc3c(c2)CC[C@H](COCc2ccccc2)C3)C1 [compound 445]
10 to 100	100 to 1000	< 10	> 625	CCCCOC[C@H]1CCc2cc([C@H]3CC[C@](N)(COP(=O)(O)O)C3)ccc2C1 [compound 446]
10 to 100	100 to 1000	< 10	> 625	CCCCOC[C@@H]1CCc2cc([C@H]3CC[C@](N)(COP(=O)(O)O)C3)ccc2C1 [compound 447]
< 10	< 10	< 10	> 625	CCCCCOC[C@H]1CCc2cc([C@H]3CC[C@](N)(COP(=O)(O)O)C3)ccc2C1 [compound 448]
< 10	10 to 100	10 to 100	> 625	N[C@]1(COP(=O)(O)O)CC[C@H](c2ccc3c(c2)CC[C@@H](COc2ccc(F)cc2)C3)C1 [compound 449]
< 10	< 10	10 to 100	> 625	CCCCCCCCCCOC[C@H]1CCc2cc([C@H]3CC[C@](N)(COP(=O)(O)O)C3)ccc2C1 [compound 450]
< 10	< 10	10 to 100	> 625	N[C@]1(COP(=O)(O)O)CC[C@H](c2ccc3c(c2)CC[C@@H](COCCCC(F)(F)F)C3)C1 [compound 451]
